# Reference: paper PMC2751816, “Functional, Non-Clonal IgM^a-Restricted B Cell Receptor Interactions with the HIV-1 Envelope gp41 Membrane Proximal External Region” (PLoS ONE, 2009)
# “Also recorded” adds a separate entry of the source.
# Columns and labels:
# [1] = system: BALB/c B cells (gp41 MPER tetramer binding); assay: Cold inhibition of APC-labeled gp41 MPER tetramer binding by unlabeled tetramers; format: cell-based, mouse (BALB/c)
# Protocol: (§1) FACS staining of single cell suspensions (≥2×10^6) was conducted using pre-mixed combinations of fluorochrome-labeled Abs and APC-conjugated B cell tetramers at empirically-determined optimal concentrations. All Abs were from BD unless otherwise stated. Primary antibodies used were: PerCP anti-B220, FITC anti-IgD, FITC, PE or PE-Cy7 anti-IgM, PE anti-CD5, FITC anti-CD11b, PE-Cy7 anti-CD19, FITC anti-CD21, PE-Cy7 anti-CD23 (eBiosciences), and PE-Cy7 anti-CD93 (eBiosciences). Other reagents included biotinylated Abs against dump channel markers: Thy1 (Abcam), F4/80 (Abcam), CD11c, Gr-1, TER-119, and NK-1.1, secondary staining SA-Texas Red conjugate; v-amine live/dead violet dye (Molecular Probes), and Fc block (anti-CD16/32).
# (§2) Staining was conducted at 4°C in several sequential steps in FACS staining buffer (1X PBS with 2% FCS, 0.1% NaN3), washing twice between steps. Cells were first incubated with v-amine live/dead dye for 15 min, then stained with APC-labeled tetramers for 30 min (and in some experiments, cold tetramer was incubated at 10 fold molar excess for 1 h, prior to staining with APC-labeled tetramers). Cells were then stained with Fc block, followed by incubation with combinations of primary Abs, and secondary staining with SA-Texas Red, each for 30 min. Data (≥2.5×10^5 events/sample) were acquired using an LSRII flow cytometer and Cell Quest software (BD Immunocytometry systems). FACS Analysis was performed using FlowJo software (Tree Star). For analysis, cells were gated in the following order: single cells were gated based on fsc height vs. fsc area+ssc height vs. ssc profiles, lymphocytes were gated on fsc and ssc profile, residual dead cells were excluded by negative gating with v-amine live/dead dye, and irrelevant non-B cells were excluded by negative gating with dump markers.
# [2] = system: MZ and B1 B cells; conditions: gp41 MPER-immunized BALB/c mice; ref L. Verkoczy and B. Haynes, unpublished results; cited from earlier work
# Description: Classical B-cell sAgs, like the S. aureus protein A subunit (SpA), can bind to and activate large populations of B cells, may cause selective deletion of MZ and B1 B cell subsets, and bind to B cells based on VH family usage, [52]. Similarly, sAg interactions of HIV-1 gp120 with human B cells have been described (reviewed in [37] and [53]–[56]), resulting in a VH3-skewed repertoire in HIV-1 infected individuals (reviewed in [57] and [58]–[60]). […] In this context, one obvious question arising from our studies is what are the physiological consequences of weak and/or incomplete signaling by gp41 MPER (Fig. 8). One possibility is that incomplete activation of B cells by low affinity MPER binding could suppress the T-independent component of MPER Ab respon ...
# [3] = system: naïve splenic BALB/c B cells; assay: Flow cytometry: APC-labeled tetramer staining of BALB/c splenic B cells; format: cell-based, mouse (BALB/c)
# Protocol: N-biotinylated, linker/spacer-containing peptides used to make tetramers are detailed in Table S4 and Fig. 7A. Peptides were synthesized and purified using reverse-phase HPLC (Primm Biotechnology). To produce tetramerized forms of each peptides, 200 µM peptide and 6 µM APC-labeled streptavadin (SA) were combined at equal volumes, and mixtures were incubated at 4°C for 4 h. Unbound peptide was removed from peptide-APC complexes by centrifugal filtration using an Amicon Centriprep YM30 column (Millipore Corporation). Purified tetramer preparations were determined using the Micro BSA protein assay kit (Pierce Biotechnology).
# as §1, §2
# [4] = system: BALB/c splenic B cells; assay: Alanine-substituted gp41 MPER mutant tetramers: binding to BALB/c splenic B cells (flow cytometry); format: cell-based, mouse (BALB/c); conditions: APC mutant tetramers 100 ng/10^6 cells, MFI; average of two experiments; Fig. 7B middle
# Description: Figure 7 Mapping of gp41 MPER residues required for high frequency interactions with IgM^a. A) List of peptides (annotated numerically according to position of substitution) used to make mutant tetramers with sequential alanine substitutions (in red) along the gp41 MPER region containing the nominal 2F5 epitope. B) Comparison of gp41 MPER residues required for binding bnAb 2F5 with those required for allotypic interactions with IgM. Shown is relative binding of mutant tetramers with either 2F5 (upper panel), naïve BALB/c total splenic B cells (middle panel), and 9G8 (lower panel). Tetramers with corresponding substituted positions in the 2F5 epitope are indicated on the x-axis, with those in blue and red representing mutated residues with >3 and >10 fold binding reductions, respectively. For measuring mutant tetramer binding to 2F5, unlabeled versions of tetramers were used in SPR analysis, as described in Materials and Methods. […]
# N-biotinylated, linker/spacer-containing peptides used to make tetramers are detailed in Table S4 and Fig. 7A. […] Purified tetramer preparations were determined using the Micro BSA protein assay kit (Pierce Biotechnology).
# FACS staining of single cell suspensions (≥2×10^6) was conducted using pre-mixed combinations of fluorochrome-labeled Abs and APC-conjugated B cell tetramers at empirically-determined optimal concentrations. […]
# [5] = system: protein tyrosine phosphorylation in BALB/c splenic B cells; assay: Phosphotyrosine immunoblot of stimulated splenic B cells; format: cell-based, mouse (BALB/c); conditions: saturating tetramer 20 µg/10^6 cells, Fig. 8A
# Protocol: To determine if gp41 MPER interactions with IgM^a could elicit the activating signals required for biological responses, we assessed BCR-proximal signaling events in BALB/c splenic B cells ligated with gp41 MPER tetramers. First, we determined the induction of protein tyrosine phosphorylation in cells incubated with saturating concentrations (20 µg/10^6 cells; see Fig. 1b) of gp41 MPER tetramer (Fig. 8A).
# 5×10^6 splenic BALB/c B cells were isolated by negative depletion of CD43-expressing cells with anti-mouse CD43 MACS beads (Miltenyi Biotech) to >95% purity, as assessed by flow cytometry. Purified B cells were equilibrated to 37°C in a humidified incubator and stimulated with gp41 MPER tetramers or F(ab)'2 anti-IgM (Jackson ImmunoResearch) in 5% FBS-containing DMEM media for various times. Whole cell extracts were made by lysing cell pellets in 1% NP-40 lysis buffer supplemented with PhosSTOP and complete, mini EDTA-free protease inhibitor tablets (Roche) and insoluble cellular debris was removed by centrifugation. Extracts were fractionated by reducing SDS PAGE on Novex Bis-Tris Mini gels (Invitrogen) and transferred to Invitrolon PVDF membranes (Invitrogen) using the Xcell II blot module. Primary Abs used were anti-phosphotyrosine clone 4G10 (Upstate) and anti-GAPDH (Millipore). Secondary Abs used were goat-anti-mouse IgG1 or IgG2a, both coupled to HRP (Jackson ImmunoResearch). […]
sequence,measurement,setting,value
"QQEKNEQELLELDKWASLWN [gp41 MPER tetramer, (residues 659–678 of the HIV-1 envelope)]",inhibition of APC-labeled gp41 MPER tetramer binding,"[1]; pre-incubation with unlabeled competitor at 10-fold molar excess, 100 ng/10^6 splenocytes",> 90%
same,inhibition of APC-labeled gp41 MPER tetramer binding (in words),"[1]; unlabeled competitor tetramer pre-incubated, Fig. 4A,B, average of three experiments (4B)",Dose-dependent inhibition of APC-labeled gp41 MPER peptide binding was observed
same,B cell subset deletion after immunization (in words),[2],partial deletion of MZ and B1 B cells in gp41 MPER-immunized BALB/c mice; also recorded: reduced MZ B cell populations in gp41 MPER-immunized BALB/c mice
same,MFI binding pattern (in words),"[3]; BALB/c B cell subsets, Fig. 1A, 2A, Table S1","the majority of MPER-reactive B cells within BALB/c subsets shifted as “low avidity” shoulders, with an additional, small fraction binding as a “higher-avidity” MFI tail"
same,gp41 MPER reactivity among B cell subsets (in words),"[3]; BALB/c splenic and peritoneal subsets, MFI and frequency, Fig. 2, Tables S1, S2",gp41 MPER reactivity was strongest in marginal zone (MZ) and peritoneal B1 B cell subsets of BALB/c mice; also recorded: exhibited lower levels of gp41 MPER binding
same,fraction of all B cells labeled at saturating tetramer,"[3]; BALB/c splenocytes, 10 µg/10^6 splenocytes, Fig. 1B",~25%
same,tetramer amount giving saturating binding,"[3]; BALB/c splenocytes, Fig. 1B",10 µg/10^6 splenocytes
same,tetramer amount with highest gp41 MPER/scrambled gp41 MPER binding ratio,"[3]; BALB/c splenocytes, sub-saturating, Fig. 1B",100 ng/10^6 splenocytes
same,frequency of binding to BALB/c B cells,"[3]; high-frequency binding, 100 ng tetramer/10^6 cells",≥ 5%
same,gp41 MPER binding over wide tetramer concentration range (in words),"[3]; serial dilutions, MFI and fraction of labeled B cells, Fig. 1B","Elevated gp41 MPER binding to BALB/c cells, relative to C57BL/6 B cells, was observed at all concentrations of tetramers carrying MPER peptide; also recorded: substantially elevated relative to the scrambled peptide controls"
same,percentage of tetramer-reactive B cells,"[3]; total splenic B cells (CD19^+), naïve BALB/c, APC tetramer 100 ng/10^6 splenocytes, above background without tetramer, Fig. 1A representative histogram",~7%
same,gp41 MPER residues required for binding (in words),[4],"mapped to 660Q and a 677 W, both located outside the core 2F5 epitope"
same,protein tyrosine phosphorylation relative to anti-IgM ligation,[5]; lower than anti-IgM ligation of equal numbers of B cells,2- to 3 fold
same,protein tyrosine phosphorylation (in words),[5]; listed as gp41 MPER tetramers,"induced rapid and reproducible patterns of protein phosphorylation; also recorded: only selected proteins were phosphorylated, including Syk, PI3K p110δ, PLC-γ2, and one or more of the Src kinase family members Lyn, Fyn, or Blk"
